# Source: patent publication US20090214669A1, “Combination anticancer therapy and pharmaceutical compositions therefore” (priority 2004, published 2009)
# “Also recorded” adds a separate entry of the source. Where two headings read alike, the source gives them in different places.
# Assays:
# [1] = Single dose i.v. infusion study of OM-174 in cancer patients (tolerability, cytokines); assay type: in vivo
# Procedure: Doses higher than 1 mg OM-174/m^2 by i.v. infusion were reached without unacceptable toxicity according to non-haematological grade III and haematological grade IV NCI Common Toxicity Criteria.
# Secretion occurred in all steps, and appeared more “patient”- than “dose”-dependent.
# The results of this single dose study led to the selection of three doses (0.6, 0.8, and 1.0 mg OM-174/m^2) for repeated i.v. injections (5 to 15 injections), used in a phase Ib study.
# [2] = system: PROb subcutaneous colon tumors; assay type: in vivo, BDIX rats
# [3] = system: spleen cells expressing CD4, CD8, and NK1.1; test: Flow cytometric analysis of spleen cell subsets; assay type: in vivo, C57BL/6 mice; conditions: for NK (%): NK1.1 positive cells vs total spleen cells; for NK (%) / CD4^+ (%) / CD8^+ (%): mean ± S.E.M; for CD4^+ (%) / CD8^+ (%): positive cells vs total spleen cells
# Procedure: Splenocytes from individual mice were analysed by flow cytometry. The following monoclonal antibodies were used for double fluorescence analysis of spleen cell subsets: fluorescein (FITC)-conjugated anti-mouse NK1.1 PE (PharMingen, San Diego, Calif.), PE-conjugated anti-mouse CD4 (PharMingen), FITC-conjugated anti-mouse CD8 (PharMingen). Approximately 1×10^6 spleen cells were resuspended in […] of CM and staining was performed at 4° C. for 30 minutes. Cells were then washed twice in PBS containing 0.02% sodium azide and flow cytometric analysis was performed using a FACscan flow cytometer (Becton Dickinson).
# Fluorescence data were collected using a 488 nm excitation wavelength from a 15 mW air-cooled argon-ion laser. […] A minimum of 5,000 events were collected on each sample and acquired in list mode by a Hewlett Packard 9000 computer. To exclude dead cells, debris, non lymphoid cells, and cell aggregates, data collection was gated on live spleen lymphocytes by forward and side angle scatter. Data are represented as the percentage of positive cells over the total number of cells counted.
# ProB cells [4] = conditions: cited from earlier work
# [5] = Pharmacokinetic data of OM-174 in man; conditions: human, in vivo, median and range; for Vd: read-out: Vss
# EMT-6 cells [6] = test: NO production (nitrite, Griess method) by EMT-6 cells exposed to OM-174; assay type: cell-based, mouse; conditions: 16 hours
# Procedure: (§1) Murine mammary adenocarcinoma EMT-6 cells were cultured in RPMI medium+10% bovine calf serum in plastic flasks. EMT-6 monolayer cultures grown to early confluence were exposed to OM-174 for 16 hours in both conditions (21% and 1% oxygen). After treatment with OM-174, nitrite determination using the classical Griess method was performed. Values were normalized for 200'000 cells per well.
# PROb cells [7] = test: BDIX/PROb peritoneal carcinomatosis, cisplatin combined with OM-174, survival; assay type: in vivo, BDIX rats; conditions: cisplatin 3 mg/kg i.v. day 21; OM-174 1 mg/kg i.v., 5 injections every 5th day from day 28 or 35
# Procedure: Colon cancer PROb cells were originally obtained from a tumor of a BDIX rat induced by 1,2-dimethylhydrazine.
# The BDIX strain of rats was established in 1937 by H. Druckrey. Nowadays these rats come from Iffa-Credo (L'Asbresle, France).
# BDIX rats, 4 months±1 month at the beginning of the experiment, 7 animals/group, received i.p. cultured syngenic PROb cells (i.p) on day 0. Cisplatin (3 mg/kg) was injected i.v. on day 21, and OM-174 treatment (1 mg/kg, 5 injections i.v. in the penile vein every 5th day) started either on days 28 or 35. Survival was followed until day 72 in the example presented here.
# In this example, cisplatin (3 mg/kg i.v) is given on day 21. A further immunostimulating treatment with OM-174 is started only on day 28 or 35 (1 mg/kg, 5 injections i.v. every 5th day).
# B16 melanoma = B16 melanoma model: tumour growth and survival time; assay type: in vivo, C57BL/6 mice; conditions: CY 200 mg/Kg i.p. day 7; OM-174 1 mg/kg i.p. days 8, 13, 18, 23, 28; vs untreated controls
# Procedure: Four to six weeks-old male C57BL/6 mice were purchased from Charles River (Calco, Corno, Italy). B 16 melanoma tumour cells were serially passaged subcutaneously (s.c.) in syngenic mice. On day 0, mice were injected s.c. in the right flank with 2×10^5 B16 melanoma cells. Tumour growth was measured daily in each mouse, using calipers, and mean tumour diameter per day was calculated. At day 7 after tumour injection, all mice with s.c. tumours of about 2-3 mm diameter were divided into different experimental groups, i.e. phosphate buffered saline (PBS)-injected control 3, CY, OM-174 or CY with OM-174.
# Cyclophosphamide (Sigma, St. Louis, Mo.) was dissolved at 20 mg/ml in PBS immediately before use, and 0.2 ml per mouse were injected intraperitoneally. Each treated animal received a single dose of 200 mg/Kg CY on day 7.
# Kaplan-Meier method was used to estimate the survivor functions and Log-rank test was performed for testing the homogeneity of survival functions across the four groups (control, CY, OM-174, CY+OM-174).
# Tumor growth was analyzed by T-test for unpaired data.
# EMT-6 cells [8] = test: Direct radiosensitisation of EMT-6 cells, 8-day colony formation assay; assay type: cell-based, mouse
# Procedure: as §1
# Cells were then collected by trypsinization and the radioresponse was estimated as described previously (Van der Berge et al., 2001) Briefly, micropellets (0.5×10^6 cells) were produced in conical tubes by centrifugation at 300 g for 5 min. Metabolic oxygen depletion in micropellets was induced by incubation at 37° C. for 3 minutes prior to radiation. Micropellets were irradiated with a linear accelerator at a rate of 2 Gy per min and the survival fraction (SF) after 5, 10, 15, and 20 Gy was measured by a 8-day colony formation assay.
# B16 melanoma cells = test: Cytotoxic (CTL) activity of spleen cells against autologous tumour cells, 51Cr-release assay; conditions: for CTL % cytotoxicity: E/T ratio 25:1
# Excerpt: (§2) Mice were sacrificed by cervical dislocation on day 14 after tumour inoculation.
# (§3) In vitro-passaged YAC-1 cells (a Moloney-virus induced mouse T cells lymphoma of A/SN origin), and in vivo-passaged B16 melanoma cells, were used as target cells in a chromium-release assay. B16 melanoma cells were obtained from tumour-bearing mice, seeded in cell-culture flasks (Falcon, Becton Dickinson and Co., Plymouth, England) and used within the first week of culture in CM. B16 and YAC-1 cell lines were obtained from the laboratory collection, and were originally obtained from the American Tissue Culture Collection (ATCC).
# (§4) The cytotoxic activity of the effector cells collected from individual mice was measured by a standard 4-hour ^51Cr-release assay. Briefly, target cells were harvested from the cultures, washed twice, resuspended at 5×10^6 cells in 0.9 ml of CM and labelled with 100 μCi (^51Cr) sodium chromate (New England Nuclear, Boston, Mass.) for 1 hour at 37° C. in a 5% CO2 incubator. […] The effector cells suspension was added to quadruplicate wells to give three E/T ratios (i.e. 100:1, 50:1, 25:1) in a final volume of 200 μl per well. The plates were then incubated for 4 hours at 37° C. in a 5% CO2 incubator, 100 μl of supernatants were collected from each well, and the radioactivity was measured using a gamma counter. Total mean cytotoxicity±S.E.M. were calculated from quadruplicate cpm values from individual spleens.
# It has been tested from spleen cells from normal and tumour-bearing mice for specific cytotoxic activity against autologous tumour cells using in-vivo passaged B16 melanoma cells as target.
# EMT-6 cells [9] = test: Indirect radiosensitisation via OM-174-induced conditioned medium; assay type: cell-based, mouse; conditions: 3 μg/ml versus 0.3 μg/ml; conditioned medium from Whistar rats
# PROb cells [10] = test: PROb i.p. rat colon cancer model, 5-FU combined with OM-174: carcinomatosis classes, ascites, survival; assay type: in vivo; conditions: day 61; for Number of rats in carcinomatosis class 0: Class 0: no visible nodule, 5-FU 30 mg/kg i.p. days 7 and 14, OM-174 1 mg/kg i.v. from day 21, 10 injections; for Number of rats in carcinomatosis class 1: Class 1: some countable nodules with a diameter from 0.1 to 0.3 cm; for Number of rats in carcinomatosis class 2: Class 2: many uncountable nodules with a diameter from 0.1 to 0.3 cm; for Number of rats in carcinomatosis class 3: Class 3: some nodules with a diameter of 1 cm invade the peritoneal cavity; for Number of rats in carcinomatosis class 4: Class 4: the cavity is completely invaded by tumor masses of several cm; for Ascites: measured by double weights of the rats
# Procedure: On day 0 (D0), 106 PROb cells were injected i.p. to each rat. 5-FU was administered i.p. at the dose of 30 mg/kg on days 7 and 14. OM-174 was injected at the dose of 1 mg/kg i.v. from day 21 three times a week for a total of 10 injections.
# All rats (controls and treated) were sacrificed by CO2 on day 61. The efficacy of the treatment was determined by read-outs such as survival (FIG. 5) and measure of the classes of cancer given depending on the number and the size of the nodules, and also by ascites measurements. Carcinomatoses were evaluated blindly. As it is impossible to measure the volume of a carcinomatosis, they were classified according to the number and diameter of the nodules: • Class 0: no visible nodule • Class 1: some countable nodules with a diameter from 0.1 to 0.3 cm • Class 2: many uncountable nodules with a diameter from 0.1 to 0.3 cm • Class 3: some nodules with a diameter of 1 cm invade the peritoneal cavity • Class 4: the cavity is completely invaded by tumor masses of several cm.
# The ascite volume was measured by double weights of the rats.
# YAC-1 cells = test: NK activity of spleen cells, 4-hour 51Cr-release assay; conditions: for NK activity (in words): B16 melanoma-injected mice; for NK % cytotoxicity: E/T ratio 25:1, mean ± S.E.
# Excerpt: as §2, §3, §4
# It has been therefore measured the cytotoxic activity of splenocytes against NK-sensitive (YAC-1) tumour cells.
# [11] = B16 tumour-bearing mice, day 14
# [12] = B16 tumour-bearing mice, day 14, CY 200 mg/Kg i.p. day 7, OM-174 1 mg/kg i.p. days 8 and 13, mean ± S.E.
smiles,measurement,setting,value
CCCCCCCCCCCC(=O)O[C@H](CCCCCCCCCCC)CC(=O)N[C@@H]1C(O)[C@H](OP(=O)(O)O)C(CO)O[C@H]1OCC1O[C@H](OP(=O)(O)O)C(NC(=O)C[C@H](O)CCCCCCCCCCC)C(O)[C@@H]1O (stereo partly shown) [OM-174],Tolerability,[1],well tolerated
same,Doses reached without unacceptable toxicity,"[1]; i.v. infusion, non-haematological grade III and haematological grade IV NCI Common Toxicity Criteria",higher than 1 mg OM-174/m^2
same,"Cytokine secretion (TNF-α, IL-1b, IL-1ra, IL-6, IL-8, sTNF-RI, sTNF-RII, IL-10, IL-2, IL-2sRa, IFN-γ)",[1]; single dose study,secretion profile consistent with that of lipid A derivatives
same,Number of cured animals/total number of animals,"[2]; CY 25 mg/kg i.p. day 36, i.t. immunostimulant from day 43 (OM-174 200 μg x12, CpG 100 μg x12, BCG days 43 and 50)",1/6
same,"Antitumoral effect of single treatment on large, established PROb tumors (in words, FIG. 3)","[2]; agent alone, comparatively to untreated animals",no antitumoral effect
same,Effect of i.t. immunostimulant on the antitumor activity of CY (in words),[2]; i.p. CY day 36 combined with i.t. immunostimulant from day 43,strongly enhanced
same,Complete and lasting tumor regression (animals),[2]; i.p. CY day 36 followed by i.t. OM-174 from day 43,4/6
same,NK (%),[3]; [11],7.5 ± 0.5%
same,CD4^+ (%),[3]; [11],27.0 ± 2.0%
same,CD8^+ (%),[3]; [11],9.3 ± 1.8%
same,"Percentages of CD4^+, CD8^+ and NK1.1 positive spleen cells (in words)",[3]; normal and tumour-bearing mice,increased the percentages
same,NK (%),[3]; normal mice,11.6 ± 2.1%
same,CD4^+ (%),[3]; normal mice,34.0 ± 2.5%
same,CD8^+ (%),[3]; normal mice,12.6 ± 1.5%
same,Therapeutic activity per se (in words),"ProB cells [4]; treatment started up to 14 days after tumour induction, WO 95/14026",strong therapeutic activity
same,Complete remissions,"ProB cells [4]; treatment starts 14 days after the injection of the cancer cells, peritoneal carcinomatoses",90%
same,clearance,"[5]; intravenous, Cancer patients",1.7 mL/min
same,half-life,"[5]; intravenous, Cancer patients",20 h
same,Vd,"[5]; intravenous, Cancer patients",2.9 L
same,clearance,[5]; Healthy volunteers,2.82 mL/min
same,half-life,[5]; Healthy volunteers,23 h
same,Vd,[5]; Healthy volunteers,5.1 L
same,"NO production (in words, FIG. 6)",EMT-6 cells [6]; hypoxic (1% oxygen) condition,increased production of NO
same,"NO production (in words, FIG. 6)",EMT-6 cells [6]; normal oxygen levels (21% oxygen),low amounts of NO
same,"Antitumour activity / survival (in words, FIG. 4)",PROb cells [7],anticancer effect is lost
same,"B16 tumour growth (in words, FIG. 1)",B16 melanoma,partially inhibits tumour progression; also recorded: inhibited slightly but significantly
same,"Survival time (MST) of mice (in words, FIG. 2)",B16 melanoma,slightly extends the survival time; also recorded: increased slightly but significantly
same,"Direct radiosensibilizing effect (in words, FIG. 7)",EMT-6 cells [8]; 21% versus 1% oxygen,directly radiosensibilizing agent for cancer cells only in hypoxic conditions
same,Lowering of the radiation dose necessary to kill 90% of the cells versus absence of OM-174,"EMT-6 cells [8]; hypoxic conditions, at either 3 or 30 mg/ml (FIG. 7)",1.67
same,CTL % cytotoxicity,B16 melanoma cells; [12],5.6 ± 0.9%
same,CTL % cytotoxicity,B16 melanoma cells; normal mice,<1%
same,Cytotoxic activity against autologous tumour cells (in words),B16 melanoma cells; tumour-bearing mice,marked stimulation of CTL activity
same,Increase of CTL activity with respect to tumour controls,B16 melanoma cells; tumour-bearing mice,two-fold increase
same,"Indirect radiosensibilizing effect via conditioned medium (in words, FIG. 8)",EMT-6 cells [9],clearly more radiosensibilizing
same,Number of rats in carcinomatosis class 0,PROb cells [10],2
same,Number of rats in carcinomatosis class 1,PROb cells [10],3
same,Number of rats in carcinomatosis class 2,PROb cells [10],2
same,Number of rats in carcinomatosis class 3,PROb cells [10],2
same,Number of rats in carcinomatosis class 4,PROb cells [10],1
same,Carcinomatosis classes versus Control group (Mann-Whitney test),PROb cells [10],significant difference
same,Ascites,PROb cells [10],1 mL
same,NK activity (in words),YAC-1 cells; day 14,dramatic increase
same,cytotoxicity at 1 mg/kg,"YAC-1 cells; Mus musculus, YAC-1, ip, read-out: NK % cytotoxicity",6.3 ± 1.7%
same,NK cell activity (in words),"YAC-1 cells; normal mice, vs untreated controls",dramatic increase
same,NK % cytotoxicity,"YAC-1 cells; normal mice, five mice",10.39 ± 1.0 %
"O=P1(N(CCCl)CCCl)NCCCO1 (stereo not shown) [CY, cyclophosphamide, reference compound]","Antitumoral effect of single treatment on large, established PROb tumors (in words, FIG. 3)","[2]; rat, in vivo",transient regression; also recorded: unable to cure animals
same,Number of cured animals/total number of animals,"[2]; rat, in vivo",0/6
same,NK (%),[3]; [11],4 ± 0.5%
same,CD4^+ (%),[3]; [11],21.7 ± 1.8%
same,CD8^+ (%),[3]; [11],6.4 ± 1.4%
same,"B16 tumour growth (in words, FIG. 1)",B16 melanoma,inhibited slightly but significantly
same,"Survival time (MST) of mice (in words, FIG. 2)",B16 melanoma,increased slightly but significantly
same,CTL % cytotoxicity,B16 melanoma cells; [12],2.63 ± 0.2%
same,Cytotoxic activity against autologous tumour cells (in words),B16 melanoma cells; tumour-bearing mice,not to be increased
same,NK activity (in words),YAC-1 cells; day 14,decreased NK activity
same,NK % cytotoxicity,"YAC-1 cells; B16 tumour-bearing mice, day 14, CY 200 mg/Kg i.p. day 7, OM-174 1 mg/kg i.p. days 8 and 13",2.3 ± 0.4%
"O=c1[nH]cc(F)c(=O)[nH]1 [5-FU, 5-Fluorouracil, reference compound]",Number of rats in carcinomatosis class 0,PROb cells [10],2
same,Number of rats in carcinomatosis class 1,PROb cells [10],0
same,Number of rats in carcinomatosis class 2,PROb cells [10],0
same,Number of rats in carcinomatosis class 3,PROb cells [10],0
same,Number of rats in carcinomatosis class 4,PROb cells [10],8
same,Carcinomatosis classes versus Control group (Mann-Whitney test),PROb cells [10],No significant difference
same,Ascites,PROb cells [10],44 mL
"N.N.[Cl][Pt][Cl] [Cisplatin, cisplatin, reference compound]","Antitumour activity / survival (in words, FIG. 4)",PROb cells [7],only partial efficacy
